Reference: US20260028336A1 (Arcus Biosciences, Inc., priority 2022, published 2026)
pIC50: −log10 of the molar value.

Biological target: T1, Cbl-b (Homo sapiens, UniProt Q13191)
T1 construct: biotin (biotinylated)
Assay: Cbl-b probe displacement HTRF binding assay
Conditions: 0.4 nM biotinylated Cbl-b, 150 nM BODIPY probe
Experimental: The affinity with which compounds of the present dislcosure bind to Cbl-b was assessed using probe displacement homologous time resolved fluorescence (HTRF) assays. […] The assays were performed in assay buffer consisting of 20 mM Hepes, 150 mM NaCl, 0.01% Triton X-100, 0.5 mM TCEP, 0.01% BSA. On the day of the assay, a 20 point, 1:2 master serial dilution of each compound was prepared in DMSO to span a final concentration range of […] to 0 nM. Two hundred nanoliters of diluted compound was added to each well of a 384-well plate. Fifteen microliters of biotinylated-Cbl-b resuspended in assay buffer were added to each well and the plate incubated for 60 minutes at room temperature prior to addition of 5 μL of BODIPY™ probe in assay buffer. […] After a further 15 minutes of incubation at room temperature, 5 μl of Streptavidin-Terbium cryptate reagent at 5-fold final concentration was added to each well of the 384-well plate. Binding of a probe to Cbl-b results in an increase of HTRF signal. […] Percentage maximum activity in each test well was calculated based on DMSO (maximum activity, 0% displacement) and no protein control wells (baseline activity, 100% displacement). Binding affinity was determined from a dose response curve fitted using a standard four parameter fit equation.

T1 sequence (Q13191 whole entry, species assumed): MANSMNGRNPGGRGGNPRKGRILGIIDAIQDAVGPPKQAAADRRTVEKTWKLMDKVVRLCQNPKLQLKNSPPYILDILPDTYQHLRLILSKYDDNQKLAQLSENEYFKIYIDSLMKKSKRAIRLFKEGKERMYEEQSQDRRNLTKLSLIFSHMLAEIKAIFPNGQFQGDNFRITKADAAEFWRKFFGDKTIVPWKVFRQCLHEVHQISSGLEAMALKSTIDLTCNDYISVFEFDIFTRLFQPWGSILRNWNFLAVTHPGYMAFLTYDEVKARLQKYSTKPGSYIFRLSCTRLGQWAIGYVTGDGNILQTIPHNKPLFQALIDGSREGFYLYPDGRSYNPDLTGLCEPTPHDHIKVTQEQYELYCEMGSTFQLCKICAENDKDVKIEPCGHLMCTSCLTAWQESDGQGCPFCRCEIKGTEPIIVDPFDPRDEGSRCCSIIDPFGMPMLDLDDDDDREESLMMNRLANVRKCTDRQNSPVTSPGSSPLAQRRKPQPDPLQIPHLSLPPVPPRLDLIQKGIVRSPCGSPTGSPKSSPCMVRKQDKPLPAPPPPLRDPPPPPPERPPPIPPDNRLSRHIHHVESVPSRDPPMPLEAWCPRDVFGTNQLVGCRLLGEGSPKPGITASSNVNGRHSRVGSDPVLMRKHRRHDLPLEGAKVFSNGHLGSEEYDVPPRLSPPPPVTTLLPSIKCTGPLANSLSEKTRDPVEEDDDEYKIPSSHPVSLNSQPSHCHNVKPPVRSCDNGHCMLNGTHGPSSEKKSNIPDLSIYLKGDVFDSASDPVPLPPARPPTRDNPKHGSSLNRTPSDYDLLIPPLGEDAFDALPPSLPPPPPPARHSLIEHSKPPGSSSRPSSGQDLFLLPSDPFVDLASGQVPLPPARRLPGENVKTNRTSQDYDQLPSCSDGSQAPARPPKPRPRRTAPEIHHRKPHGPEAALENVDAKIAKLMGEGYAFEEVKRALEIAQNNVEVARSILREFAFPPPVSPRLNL

Row | Structure (SMILES) | pIC50
1 | CC1CC(c2cccc(-n3cc(C4CC4)c4c(CN5CCC[C@H](C)C5)c[nH]c4c3=O)c2)(c2nncn2C)C1 (mixture of isomers) [Example 15, 4-Cyclopropyl-6-{3-[3-methyl-1-(4-methyl-4H-1,2,4-triazol-3-yl)cyclobutyl]phenyl}-3-{[(3S′)-3-methylpiperidin-1-yl]methyl}-1H,6H,7H-pyrrolo[2,3-c]pyridin-7-one] | 6.00 to 7.00
2 | CC1CC(c2cccc(-n3cc(C4CC4)c4cc(-c5cnn(C)c5)[nH]c4c3=O)c2)(c2nncn2C)C1 (mixture of isomers) [Example 32, 4-cyclopropyl-6-{3-[3-methyl-1-(4-methyl-4H-1,2,4-triazol-3-yl)cyclobutyl]phenyl}-2-(1-methyl-1H-pyrazol-4-yl)-1H,6H,7H-pyrrolo[2,3-c]pyridin-7-one] | 5.30 to 6.00
3 | CC1CC(c2cccc(-n3cc(C(F)(F)F)c4c(C#N)c[nH]c4c3=O)c2)(c2nncn2C)C1 (mixture of isomers) [Example 136, 7-Oxo-6-{3-[(1R,3S)-3-methyl-1-(4-methyl-4H-1,2,4-triazol-3-yl)cyclobutyl]phenyl}-4-(trifluoromethyl)-1H,6H,7H-pyrrolo[2,3-c]pyridine-3-carbonitrile] | > 7.00
4 | CC1CC(c2cccc(-n3cc(C(F)(F)F)c4c(S(C)(=O)=O)c[nH]c4c3=O)c2)(c2nncn2C)C1 (mixture of isomers) [Example 139, 3-Methanesulfonyl-6-{3-[(1S,3R)-3-methyl-1-(4-methyl-4H-1,2,4-triazol-3-yl)cyclobutyl]phenyl}-4-(trifluoromethyl)-1H,6H,7H-pyrrolo[2,3-c]pyridin-7-one] | > 7.00
5 | CC(=O)c1c[nH]c2c(=O)n(-c3cccc([C@]4(c5nncn5C)C[C@@H](C)C4)c3)cc(C3CC3)c12 (single isomer, unassigned) [Example 21, 3-Acetyl-4-cyclopropyl-6-{3-[(1r,3s)-3-methyl-1-(4-methyl-4H-1,2,4-triazol-3-yl)cyclobutyl]phenyl}-1H,6H,7H-pyrrolo[2,3-c]pyridin-7-one] | > 7.00
6 | Cn1cnnc1[C@]1(c2cccc(-n3ccc4c(C#N)c[nH]c4c3=O)c2)C[C@@H](C)C1 (single isomer, unassigned) [Example 28, 7-Oxo-6-{3-[(1s,3r)-3-methyl-1-(4-methyl-4H-1,2,4-triazol-3-yl)cyclobutyl]phenyl}-1H,6H,7H-pyrrolo[2,3-c]pyridine-3-carbonitrile] | 6.00 to 7.00
7 | Cn1cnnc1[C@]1(c2cccc(-n3ccc4cc[nH]c4c3=O)c2)C[C@H](C)C1 (single isomer, unassigned) [Example 30, 6-{3-[(1r,3s)-3-methyl-1-(4-methyl-4H-1,2,4-triazol-3-yl)cyclobutyl]phenyl}-1H,6H,7H-pyrrolo[2,3-c]pyridin-7-one] | 5.30 to 6.00
8 | Cn1cnnc1[C@]1(c2cccc(-n3ccc4cc[nH]c4c3=O)c2)C[C@@H](C)C1 (single isomer, unassigned) [Example 31, 6-{3-[(1s,3r)-3-methyl-1-(4-methyl-4H-1,2,4-triazol-3-yl)cyclobutyl]phenyl}-1H,6H,7H-pyrrolo[2,3-c]pyridin-7-one] | 5.30 to 6.00
9 | CC(Sc1nncn1C)c1cccc(-n2cc(C3CC3)c3cc(CN4CCC[C@H](C)C4)[nH]c3c2=O)c1 (stereo partly drawn) [Example 2, 4-cyclopropyl-2-[[(3S)-3-methylpiperidin-1-yl]methyl]-6-[3-[1-[(4-methyl-1,2,4-triazol-3-yl)sulfanyl]ethyl]phenyl]-1H-pyrrolo[2,3-c]pyridin-7-one] | 6.00 to 7.00
10 | CC1CC(c2cccc(-n3cc(C4CC4)c4cc(CN5CCC[C@H](C)C5)n(C)c4c3=O)c2)(c2nncn2C)C1 (stereo partly drawn) [Example 5, 4-cyclopropyl-1-methyl-6-[3-[3-methyl-1-(4-methyl-1,2,4-triazol-3-yl)cyclobutyl]phenyl]-2-[[(3S)-3-methylpiperidin-1-yl]methyl]pyrrolo[2,3-c]pyridin-7-one] | < 5.30
11 | Cn1cnnc1C1(c2cccc(-n3cc(C4CC4)c4cc[nH]c4c3=O)c2)CC2(CC2)C1 [Example 10, 4-cyclopropyl-6-[3-[5-(4-methyl-1,2,4-triazol-3-yl)spiro[2.3]hexan-5-yl]phenyl]-1H-pyrrolo[2,3-c]pyridin-7-one] | 6.00 to 7.00
12 | Cn1cnnc1[C@]1(c2cccc(-n3cc(C4CC4)c4c(C(F)(F)F)c[nH]c4c3=O)c2)C[C@H](C)C1 [Example 18, 4-Cyclopropyl-6-{3-[(1r,3s)-3-methyl-1-(4-methyl-4H-1,2,4-triazol-3-yl)cyclobutyl]phenyl}-3-(trifluoromethyl)-1H,6H,7H-pyrrolo[2,3-c]pyridin-7-one] | 6.00 to 7.00

Other lines, results leading:

Row | pIC50 | Structure (SMILES)
13 | 6.00 to 7.00 | CC1CC(c2cccc(-n3cc(C4CC4)c4c(CO)c[nH]c4c3=O)c2)(c2nncn2C)C1 (mixture of isomers) [Example 16, 4-Cyclopropyl-3-(hydroxymethyl)-6-{3-[3-methyl-1-(4-methyl-4H-1,2,4-triazol-3-yl)cyclobutyl]phenyl}-1H,6H,7H-pyrrolo[2,3-c]pyridin-7-one]
14 | 6.00 to 7.00 | Cn1cnnc1[C@]1(c2cccc(-n3ccc4c(C5CC5)c[nH]c4c3=O)c2)C[C@H](C)C1 (single isomer, unassigned) [Example 13, 3-cyclopropyl-6-{3-[(1r,3s)-3-methyl-1-(4-methyl-4H-1,2,4-triazol-3-yl)cyclobutyl]phenyl}-1H,6H,7H-pyrrolo[2,3-c]pyridin-7-one]
15 | 5.30 to 6.00 | Cn1cnnc1[C@]1(c2cccc(-n3cc(C4CC4)c4c(C(=O)O)c[nH]c4c3=O)c2)C[C@H](C)C1 (single isomer, unassigned) [Example 19, 4-Cyclopropyl-7-oxo-6-{3-[(1r,3s)-3-methyl-1-(4-methyl-4H-1,2,4-triazol-3-yl)cyclobutyl]phenyl}-1H,6H,7H-pyrrolo[2,3-c]pyridine-3-carboxylic acid]
16 | 5.30 to 6.00 | Cn1cnnc1[C@]1(c2cccc(-n3cc(C4CC4)c4c(C(=O)O)c[nH]c4c3=O)c2)C[C@@H](C)C1 (single isomer, unassigned) [Example 20, 4-Cyclopropyl-7-oxo-6-{3-[(1s,3r)-3-methyl-1-(4-methyl-4H-1,2,4-triazol-3-yl)cyclobutyl]phenyl}-1H,6H,7H-pyrrolo[2,3-c]pyridine-3-carboxylic acid]
17 | > 7.00 | CC(=O)c1c[nH]c2c(=O)n(-c3cccc([C@]4(c5nncn5C)C[C@H](C)C4)c3)cc(C3CC3)c12 (single isomer, unassigned) [Example 22, 3-Acetyl-4-cyclopropyl-6-{3-[(1s,3r)-3-methyl-1-(4-methyl-4H-1,2,4-triazol-3-yl)cyclobutyl]phenyl}-1H,6H,7H-pyrrolo[2,3-c]pyridin-7-one]
18 | 6.00 to 7.00 | CC(O)c1c[nH]c2c(=O)n(-c3cccc([C@]4(c5nncn5C)C[C@@H](C)C4)c3)cc(C3CC3)c12 (single isomer, unassigned) [Example 23]
19 | 6.00 to 7.00 | CC(O)c1c[nH]c2c(=O)n(-c3cccc([C@]4(c5nncn5C)C[C@H](C)C4)c3)cc(C3CC3)c12 (single isomer, unassigned) [Example 24]
20 | 6.00 to 7.00 | Cn1cnnc1[C@]1(c2cccc(-n3cc(C4CC4)c4c(S(C)(=O)=O)c[nH]c4c3=O)c2)C[C@H](C)C1 (single isomer, unassigned) [Example 25, 4-Cyclopropyl-3-methanesulfonyl-6-{3-[(1r,3s)-3-methyl-1-(4-methyl-4H-1,2,4-triazol-3-yl)cyclobutyl]phenyl}-1H,6H,7H-pyrrolo[2,3-c]pyridin-7-one]
21 | 6.00 to 7.00 | Cn1cnnc1[C@]1(c2cccc(-n3cc(C4CC4)c4c(S(C)(=O)=O)c[nH]c4c3=O)c2)C[C@@H](C)C1 (single isomer, unassigned) [Example 26, 4-Cyclopropyl-3-methanesulfonyl-6-{3-[(1s,3r)-3-methyl-1-(4-methyl-4H-1,2,4-triazol-3-yl)cyclobutyl]phenyl}-1H,6H,7H-pyrrolo[2,3-c]pyridin-7-one]
22 | 6.00 to 7.00 | Cn1cnnc1[C@]1(c2cccc(-n3ccc4c(C#N)c[nH]c4c3=O)c2)C[C@H](C)C1 (single isomer, unassigned) [Example 27, 7-Oxo-6-{3-[(1r,3s)-3-methyl-1-(4-methyl-4H-1,2,4-triazol-3-yl)cyclobutyl]phenyl}-1H,6H,7H-pyrrolo[2,3-c]pyridine-3-carbonitrile]
23 | > 7.00 | Cn1cncc1-c1c[nH]c2c(=O)n(-c3cccc([C@]4(c5nncn5C)C[C@H](C)C4)c3)cc(C3CC3)c12 (single isomer, unassigned) [Example 35]
24 | < 5.30 | CC1CC(c2cccc(-n3cc(C4CC4)c4ccsc4c3=O)c2)(c2nncn2C)C1 (centres unmarked) [Example 6, 4-cyclopropyl-6-{3-[3-methyl-1-(4-methyl-4H-1,2,4-triazol-3-yl)cyclobutyl]phenyl}-6H,7H-thieno[2,3-c]pyridin-7-one]
25 | 6.00 to 7.00 | CC1CC(c2cccc(-n3cc(C4CC4)c4nc[nH]c4c3=O)c2)(c2nncn2C)C1 (centres unmarked) [Example 11, 7-cyclopropyl-5-{3-[(1r,3s)-3-methyl-1-(4-methyl-4H-1,2,4-triazol-3-yl)cyclobutyl]phenyl}-3H,4H,5H-imidazo[4,5-c]pyridin-4-one]
26 | 6.00 to 7.00 | Cc1c[nH]c2c(=O)n(-c3cccc([C@]4(c5nncn5C)C[C@@H](C)C4)c3)cc(C3CC3)c12 [Example 17, 4-Cyclopropyl-3-methyl-6-{3-[(1r,3s)-3-methyl-1-(4-methyl-4H-1,2,4-triazol-3-yl)cyclobutyl]phenyl}-1H,6H,7H-pyrrolo[2,3-c]pyridin-7-one]
